Source: patent publication US7241803B2, “Compounds for inhibition of HIV infection by blocking HIV entry” (New York Blood Center, priority 2002, dated 2007)
In brackets after ≈: the same amount, converted by molar mass.

Tests used:
HIV-1IIIB [1] = assay: inhibition of HIV-1IIIB replication (p24 production) in MT-2 cells; type: cell-based; conditions: for IC50: HIV-1IIIB replication, MT-2 cells; for inhibitory activity on HIV-1IIIB replication: concentration up to 80 μg/ml
From the text: (§1) Assessment of anti-HIV-1 infectivity. […] Reactions were terminated by addition of 1N H2SO4.

HIV-1 RF (clade B, X4) = assay: infection by laboratory-adapted HIV-1 strain, p24 production; type: cell-based
Experimental: (§2) Assessment of anti-HIV-1 infectivity. The inhibitory activity of compounds on infection by laboratory-adapted HIV-1 strains was determined as previously described (18). In brief, 1×10^4 MT-2 cells were infected with HIV-1 at 100 TCID50 (50% tissue culture infective dose) in 200 μl of RPMI 1640 medium containing 10% FBS in the presence or absence of compounds at graded concentrations overnight. For the time-of-addition assay, compounds were added at various time post-infection. Then the culture supernatants were removed and fresh media were added. On the fourth day post-infection, 100 μl of culture supernatants were collected from each well, mixed with equal volumes of 5% Triton X-100 and assayed for p24 antigen, which was quantitated by ELISA (51). Briefly, the wells of polystyrene plates (Immulon 1B, Dynex Technology, Chantilly, Va.) were coated with HIV immunoglobulin (HIVIG), which was prepared from plasma of HIV-seropositive donors with high neutralizing titers against HIV-1IIIB as previously described (44) in 0.085 M carbonate-bicarbonate buffer (pH 9.6) at 4° C. overnight, followed by washes with PBS-T buffer (0.01M PBS containing 0.05% Tween-20) and blocking with PBS containing 1% dry fat-free milk (Bio-Rad Inc., Hercules, Calif.). Virus lysates were added to the wells and incubated at 37° C. for 1 h. […] Absorbance at 450 nm was recorded in an ELISA reader (Ultra 384, Tecan). […]

[2] = test system: HIV-1 AZT-R (clade B, X4); conditions: Laboratory-adapted AZT-R (clade B, X4)
Experimental: as §2

[3] = test system: HIV-1 93BR020 (clade F, X4R5); conditions: Primary 93BR020 (clade F, X4R5), PBMCs
Experimental: (§3) Inhibitory activity of compounds on infection by primary HIV-1 isolates was determined as previously described (41). PBMCs were isolated from the blood of healthy donors at the New York Blood Center by standard density gradient centrifugation using Histopaque-1077 (Sigma). The cells were plated in 75 cm^2 plastic flasks and incubated at 37° C. for 2 hrs. The nonadherent cells were collected and resuspended at 5×10^6 in 10 ml RPMI-1640 medium containing 10% FBS, 5 μg/ml PHA and 100 U/ml IL-2 (Sigma), followed by incubation at 37° C. for 3 days. The PHA-stimulated cells were infected with corresponding primary HIV-1 isolates at 0.01 multiplicity of infection (MOI) in the absence or presence of a compound at graded concentrations. Culture media were changed every 3 days. The supernatants were collected 7 days post-infection and tested for p24 antigen by ELISA as described above. The percent inhibition of p24 production and IC50 values were calculated as described above.

[4] = test system: HIV-1 93TH051 (clade E, X4R5); conditions: Primary 93TH051 (clade E, X4R5), PBMCs
Experimental: as §3

[5] = test system: HIV-1 RU570 (clade G, R5); conditions: Primary RU570 (clade G, R5), PBMCs
Experimental: as §3

HIV-1IIIB [6] = assay: time-of-addition assay; type: cell-based; conditions: for time of addition at which HIV replication is inhibited: summary statement
Experimental: as §1
MT-2 cells were incubated with HIV-1IIIB at 37° C. for 0, 1, 2, 3, 4, 6, and 8 hrs, respectively, before addition of the test compounds at 10 μg/ml. AZT (2.5 μM) was used as a control. After culture for another 2 hrs, the cells were washed to remove the free virus and compounds. The supernatants were collected on day 4 post-infection for measurement of p24 production.

[7] = target: gp41 six-helix bundle formed by N36 and C34-FITC (Human immunodeficiency virus type 1 group M subtype B, UniProt P04578); conditions: 200 μg/ml; for gp41 six-helix bundle formation in FN-PAGE: added after N36 preincubated with C34-FITC; for gp41 six-helix bundle band in FN-PAGE: preincubated with N36 before addition of C34-FITC
Chain of gp41 six-helix bundle formed by N36 and C34-FITC (P04578 546-581): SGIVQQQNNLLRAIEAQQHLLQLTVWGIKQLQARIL
Experimental: Fluorescence native polyacrylamide gel electrophoresis (FN-PAGE). FN-PAGE was performed as previously described (32). Briefly, 18% pre-cast Tris-Glycine gels and Novex X-Cell II Mini cell (Invitrogen, Carlsbad, Calif.) were used for native-PAGE. […] In the control, N36 was incubated with C34-FITC at 37° C. for 30 min before addition of the compounds. After incubation at 37° C. for another 30 min, the mixture was diluted in Tris-Glycine native sample buffer, then loaded to 10×1.0 mm wells. Gel electrophdrosis was carried out with 125 V constant voltage at room temperature for about 90 min in Tris-Glycine native running buffer. Immediately after electrophoresis, image of the fluorescence bands in the gel was taken by the FluorChem 8800 Imaging System (Alpha Innotech corp., San Leandro, Calif.) using a transillumination UV light source with excitation wavelength at 302 nm and a fluorescence filter with emission wavelength at 520 nm.

[8] = test system: gp41 pocket presented on IQN17
Experimental: Inhibition of a biotinylated D-peptide binding to IQN17. For measuring the binding of a D-peptide, D10-p5-2k to IQN17, an ELISA was established. In brief, wells of a 96-well polystyrene plate were coated with IgG (10 μg/ml) purified from rabbit antisera directed against IQN17. The peptide IQN17 (10 μM) was incubated with a compound at graded concentrations at 37° C. for 30 min before addition of the peptide D10-p5-2K-biotin (5 μM). After incubation at 37° C. for 30 min, the mixture was added to the plate, followed by incubation at 37° C. for 30 min. After extensive washes, D10-p5-2K-biotin bound to the IQN17 was quantitated by addition of SA-HRP and TMB sequentially. The absorbance at 450 nm was read using an ELISA reader (Tecan). The percentage of inhibition by the compounds was calculated as described above.

[9] = 10 μg/ml added one hour or longer after virus
[10] = 10 μg/ml added to the cells with virus together

Row | Compound | IC50 (HIV-1IIIB [1]) [µg/mL] | inhibitory activity on HIV-1IIIB replication (HIV-1IIIB [1]) | IC50 (μg/ml) for inhibition of p24 production (HIV-1 RF (clade B, X4)) [µg/mL] | IC50 (μg/ml) for inhibition of p24 production [2] [µg/mL] | IC50 (μg/ml) for inhibition of p24 production [3] [µg/mL] | IC50 (μg/ml) for inhibition of p24 production [4] [µg/mL] | IC50 (μg/ml) for inhibition of p24 production [5] [µg/mL] | inhibition of HIV-1 replication, time of addition (HIV-1IIIB [6]; [9]) | inhibition of HIV-1 replication, time of addition (HIV-1IIIB [6]; [10]) | time of addition at which HIV replication is inhibited (HIV-1IIIB [6]) | gp41 six-helix bundle formation in FN-PAGE [7] | gp41 six-helix bundle band in FN-PAGE [7] | inhibition of biotinylated D10-p5-2K binding to IQN17 [8]
1 | Cc1ccc(C)n1-c1ccc(C(=O)O)c(O)c1 [NB-2] | 0.24 ± 0.05 (≈ 1.04 µM) | significantly inhibited | 0.45 ± 0.04 | 1.41 ± 0.03 | 2.50 ± 0.01 | 1.15 ± 0.14 | 23.12 ± 1.23 | no inhibitory activity | inhibited HIV-1 replication | only when they were added to the cells less than two hours after virus addition | not inhibited | the intensity of the upper bands were significantly decreased | significantly inhibited
2 | O=C(O)c1cc(-n2cccc2)ccc1Cl [NB-64] | 0.49 ± 0.09 (≈ 2.21 µM) | significantly inhibited | 0.96 ± 0.03 | 6.25 ± 0.25 | 1.05 ± 0.18 | 5.24 ± 1.80 | 8.81 ± 0.24 | no inhibitory activity | inhibited HIV-1 replication | only when they were added to the cells less than two hours after virus addition | not inhibited | the intensity of the upper bands were significantly decreased | significantly inhibited
